According to ChEMBL document CHEMBL1201862, “PubChem BioAssay data set” (2004):
Values belong to the molecule of their own block, whether it stands above or below them. Active and inactive are the calls of the source.

Columns and labels:
H9c2 = assay: cells; assay type: functional, cell-based; details: Rattus norvegicus, H9c2, Myocardium;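 further: confirmatory concentration-response retest of ultra-high-throughput screening hits for modulation of myocardial damage; cell death induced by hydrogen peroxide oxidative stress; compound pretreatment for 60 min then peroxide exposure for 2 h; potency is for protecting the cells against peroxide damage rather than for killing them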
[1] = C. albicans growth with fluconazole, confirmation, fluorescence, retest (AID 2467); assay type: functional, cell-based
BJ [2] = assay: cytotoxicity toward BJ-TERT fibroblasts, dose response, cell-based, RAS-independent, luminescence (AID 1933); assay type: functional; details: Homo sapiens
[3] = Counterscreen for AddAB inhibitors: absorbance-based bacterial cell-based high throughput dose response assay for inhibitors of bacterial viability. [Related pubchem assays (depositor defined):AID435030, AID449728, AID449731, AID488942, AID488955, AID488956]; assay type: functional
BJ [4] = assay: cytotoxicity toward BJ-TERT-LT-ST fibroblasts, dose response, cell-based, RAS-independent, luminescence (AID 1935); assay type: functional; details: Homo sapiens;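 further: BJ fibroblasts immortalized with TERT plus LT and ST oncogenes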
[5] = cytotoxicity toward DRD oncogenic fibroblasts, dose response, cell-based, non-viral oncogenic, luminescence (AID 1934); assay type: functional; details: Homo sapiens
[6] = target: Tyrosine-protein kinase Fyn (Homo sapiens, UniProt P06241); assay type: functional
[7] = target: Mitogen-activated protein kinase 1 (Homo sapiens, UniProt P28482); assay type: functional
[8] = target: Serine/threonine-protein kinase PLK4 (Homo sapiens, UniProt O00444); assay type: functional;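 further: PLK4 measured as one member of a kinome-wide kinase profiling panel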
[9] = target: Calcium/calmodulin-dependent protein kinase type II subunit delta (Homo sapiens, UniProt Q13557); assay type: functional
[10] = target: Glycogen synthase kinase-3 alpha (Homo sapiens, UniProt P49840); assay type: functional;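 further: GSK3A result taken from a broad kinome-wide kinase panel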
[11] = target: Casein kinase I isoform delta (Homo sapiens, UniProt P48730); assay type: functional;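 further: measured as one member (CSNK1D) of a kinome panel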
[12] = target: Serine/threonine-protein kinase pim-3 (Homo sapiens, UniProt Q86V86); assay type: functional;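 further: value obtained as one member of a broad kinase panel profiling effort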
[13] = target: Protein kinase C iota type (Homo sapiens, UniProt P41743); assay type: functional;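 further: measured within a kinome-wide kinase panel, PRKCI as panel member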
[14] = target: Fibroblast growth factor receptor 3 (Homo sapiens, UniProt P22607); assay type: functional
[15] = target: Death-associated protein kinase 3 (Homo sapiens, UniProt O43293); assay type: functional;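 further: measured as one member of a kinome-wide profiling panel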
[16] = target: RAC-gamma serine/threonine-protein kinase (Homo sapiens, UniProt Q9Y243); assay type: functional
Chain of RAC-gamma serine/threonine-protein kinase (Q9Y243 whole entry): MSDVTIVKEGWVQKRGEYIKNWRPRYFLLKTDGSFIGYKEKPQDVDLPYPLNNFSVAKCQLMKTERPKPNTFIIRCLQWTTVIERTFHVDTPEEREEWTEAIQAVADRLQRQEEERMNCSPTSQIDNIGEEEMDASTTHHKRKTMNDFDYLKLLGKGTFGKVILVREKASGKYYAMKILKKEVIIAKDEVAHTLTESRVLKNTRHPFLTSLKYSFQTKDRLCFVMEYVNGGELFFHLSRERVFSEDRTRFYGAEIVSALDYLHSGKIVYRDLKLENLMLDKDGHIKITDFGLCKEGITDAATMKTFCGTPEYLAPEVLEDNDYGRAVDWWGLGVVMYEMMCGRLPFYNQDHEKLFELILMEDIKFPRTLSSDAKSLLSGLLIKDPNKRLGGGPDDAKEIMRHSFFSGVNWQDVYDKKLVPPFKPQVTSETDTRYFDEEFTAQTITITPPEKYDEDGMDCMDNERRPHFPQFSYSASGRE

[17] = target: Tyrosine-protein kinase BTK (Homo sapiens, UniProt Q06187); assay type: functional
[18] = target: Serine/threonine-protein kinase PAK 4 (Homo sapiens, UniProt O96013); assay type: functional;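 further: value obtained within a kinome profiling panel in which PAK4 was one of the panel members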
[19] = target: Calcium/calmodulin-dependent protein kinase type II subunit gamma (Homo sapiens, UniProt Q13555); assay type: functional
Chain of Calcium/calmodulin-dependent protein kinase type II subunit gamma (Q13555 whole entry): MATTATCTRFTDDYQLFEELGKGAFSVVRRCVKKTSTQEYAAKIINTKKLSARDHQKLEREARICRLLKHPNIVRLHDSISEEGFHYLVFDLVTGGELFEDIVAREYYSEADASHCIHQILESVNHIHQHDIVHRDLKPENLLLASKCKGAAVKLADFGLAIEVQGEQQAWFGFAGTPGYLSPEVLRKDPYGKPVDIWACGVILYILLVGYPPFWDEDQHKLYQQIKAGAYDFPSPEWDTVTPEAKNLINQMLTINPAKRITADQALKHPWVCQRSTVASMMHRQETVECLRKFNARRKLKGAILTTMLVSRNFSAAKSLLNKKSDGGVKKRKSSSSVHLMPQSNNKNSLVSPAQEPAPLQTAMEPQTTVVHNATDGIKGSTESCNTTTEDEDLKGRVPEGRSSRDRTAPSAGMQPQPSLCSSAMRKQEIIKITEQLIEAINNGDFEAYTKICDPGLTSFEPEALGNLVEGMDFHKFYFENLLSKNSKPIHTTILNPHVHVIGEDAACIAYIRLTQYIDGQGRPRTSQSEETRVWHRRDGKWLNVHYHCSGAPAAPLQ

[20] = target: MAP/microtubule affinity-regulating kinase 3 (Homo sapiens, UniProt P27448); assay type: functional;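 further: MARK3 affinity measured as one member of a kinome panel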
[21] = target: Protein kinase C delta type (Homo sapiens, UniProt Q05655); assay type: functional
Aurora kinase A = Aurora kinase A (Homo sapiens, UniProt O14965); assay type: functional;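 further: value from the Navigating the Kinome kinase panel profiling, panel entry STK6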
[22] = target: Ribosomal protein S6 kinase beta-1 (Homo sapiens, UniProt P23443); assay type: functional;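 further: measured as one member of a kinome-wide profiling panel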
[23] = target: Receptor tyrosine-protein kinase erbB-4 (Homo sapiens, UniProt Q15303); assay type: functional;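 further: ERBB4 member of a kinome-wide kinase profiling panel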
Chain of Receptor tyrosine-protein kinase erbB-4 (Q15303 whole entry): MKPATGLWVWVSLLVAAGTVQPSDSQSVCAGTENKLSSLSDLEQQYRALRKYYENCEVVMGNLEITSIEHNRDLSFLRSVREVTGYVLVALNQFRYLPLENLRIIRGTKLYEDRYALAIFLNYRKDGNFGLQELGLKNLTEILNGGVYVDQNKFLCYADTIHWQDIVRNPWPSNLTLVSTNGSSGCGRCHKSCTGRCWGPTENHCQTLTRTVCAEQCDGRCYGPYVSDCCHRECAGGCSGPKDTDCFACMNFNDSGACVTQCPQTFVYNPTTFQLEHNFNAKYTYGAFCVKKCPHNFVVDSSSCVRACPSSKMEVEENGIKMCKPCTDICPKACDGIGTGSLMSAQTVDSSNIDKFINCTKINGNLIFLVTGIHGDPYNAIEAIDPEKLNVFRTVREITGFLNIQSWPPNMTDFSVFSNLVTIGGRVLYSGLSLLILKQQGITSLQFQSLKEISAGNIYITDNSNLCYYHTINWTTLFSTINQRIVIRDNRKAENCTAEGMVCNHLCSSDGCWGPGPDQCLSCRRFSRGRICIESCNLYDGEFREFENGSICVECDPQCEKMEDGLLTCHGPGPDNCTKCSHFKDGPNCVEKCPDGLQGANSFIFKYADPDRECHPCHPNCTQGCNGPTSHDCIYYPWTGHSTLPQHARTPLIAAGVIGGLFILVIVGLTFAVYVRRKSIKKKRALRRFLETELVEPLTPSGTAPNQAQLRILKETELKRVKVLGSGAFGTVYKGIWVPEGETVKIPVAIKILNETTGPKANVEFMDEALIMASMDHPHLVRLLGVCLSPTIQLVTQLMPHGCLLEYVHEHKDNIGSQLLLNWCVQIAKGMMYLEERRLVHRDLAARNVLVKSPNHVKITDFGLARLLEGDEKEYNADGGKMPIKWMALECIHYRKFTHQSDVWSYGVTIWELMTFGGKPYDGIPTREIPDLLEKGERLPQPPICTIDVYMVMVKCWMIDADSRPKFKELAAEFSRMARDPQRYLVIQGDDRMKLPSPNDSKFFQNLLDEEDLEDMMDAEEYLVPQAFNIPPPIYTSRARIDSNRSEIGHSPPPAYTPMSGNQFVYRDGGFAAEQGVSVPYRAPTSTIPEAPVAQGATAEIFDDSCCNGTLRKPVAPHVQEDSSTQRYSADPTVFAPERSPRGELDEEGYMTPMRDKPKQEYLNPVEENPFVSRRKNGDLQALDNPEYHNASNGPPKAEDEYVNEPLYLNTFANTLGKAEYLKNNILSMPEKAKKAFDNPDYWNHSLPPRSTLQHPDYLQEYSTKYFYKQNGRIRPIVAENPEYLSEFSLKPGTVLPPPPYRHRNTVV

[24] = target: RAC-alpha serine/threonine-protein kinase (Homo sapiens, UniProt P31749); assay type: functional;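 further: AKT1 affinity measured as one member of a kinome-wide kinase profiling panel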
[25] = target: Maternal embryonic leucine zipper kinase (Homo sapiens, UniProt Q14680); assay type: functional
Insulin receptor = Insulin receptor (Homo sapiens, UniProt P06213); assay type: functional;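 further: insulin receptor kinase tested as one member of a kinome-wide kinase panel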
[26] = target: Dual specificity tyrosine-phosphorylation-regulated kinase 4 (Homo sapiens, UniProt Q9NR20); assay type: functional
[27] = target: Hepatocyte growth factor receptor (Homo sapiens, UniProt P08581); assay type: functional;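 further: kinase panel profiling across the kinome, with MET as the panel member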
Chain of Hepatocyte growth factor receptor (P08581 whole entry): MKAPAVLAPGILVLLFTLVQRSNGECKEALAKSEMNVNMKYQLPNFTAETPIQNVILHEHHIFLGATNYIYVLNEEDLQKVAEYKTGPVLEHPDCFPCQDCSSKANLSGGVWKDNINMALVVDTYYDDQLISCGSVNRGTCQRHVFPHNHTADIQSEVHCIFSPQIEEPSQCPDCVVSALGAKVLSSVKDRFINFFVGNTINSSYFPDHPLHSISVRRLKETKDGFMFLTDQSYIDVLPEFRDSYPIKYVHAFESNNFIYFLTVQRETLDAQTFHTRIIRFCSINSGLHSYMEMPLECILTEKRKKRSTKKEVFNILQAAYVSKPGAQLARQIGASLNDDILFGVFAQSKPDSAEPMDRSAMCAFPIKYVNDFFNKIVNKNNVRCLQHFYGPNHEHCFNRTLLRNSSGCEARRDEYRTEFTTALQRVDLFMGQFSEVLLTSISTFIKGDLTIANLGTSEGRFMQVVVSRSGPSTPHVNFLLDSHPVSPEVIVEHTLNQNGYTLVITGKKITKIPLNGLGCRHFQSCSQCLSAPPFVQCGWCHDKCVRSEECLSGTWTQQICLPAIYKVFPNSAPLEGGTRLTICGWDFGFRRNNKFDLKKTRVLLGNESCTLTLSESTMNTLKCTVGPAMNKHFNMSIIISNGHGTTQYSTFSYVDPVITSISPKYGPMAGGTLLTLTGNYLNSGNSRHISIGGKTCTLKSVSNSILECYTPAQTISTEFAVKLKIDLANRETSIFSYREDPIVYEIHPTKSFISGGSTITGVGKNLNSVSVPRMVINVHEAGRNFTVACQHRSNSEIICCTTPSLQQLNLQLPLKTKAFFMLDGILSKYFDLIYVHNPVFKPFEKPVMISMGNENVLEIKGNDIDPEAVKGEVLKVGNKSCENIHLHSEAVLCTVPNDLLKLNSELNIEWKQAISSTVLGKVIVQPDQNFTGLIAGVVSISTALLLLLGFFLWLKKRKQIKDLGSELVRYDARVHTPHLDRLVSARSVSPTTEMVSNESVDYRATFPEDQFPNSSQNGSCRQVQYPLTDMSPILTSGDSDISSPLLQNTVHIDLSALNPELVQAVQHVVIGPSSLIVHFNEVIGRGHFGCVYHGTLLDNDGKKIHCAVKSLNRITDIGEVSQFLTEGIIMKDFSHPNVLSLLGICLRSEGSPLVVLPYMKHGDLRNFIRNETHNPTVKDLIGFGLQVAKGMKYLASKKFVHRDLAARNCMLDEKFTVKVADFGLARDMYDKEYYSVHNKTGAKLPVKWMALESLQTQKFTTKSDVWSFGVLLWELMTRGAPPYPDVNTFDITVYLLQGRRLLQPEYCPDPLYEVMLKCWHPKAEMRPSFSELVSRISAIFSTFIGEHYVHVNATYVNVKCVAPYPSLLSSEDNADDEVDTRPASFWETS

[28] = target: Mitogen-activated protein kinase 8 (Homo sapiens, UniProt P45983); assay type: functional;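 further: value comes from one member of a kinome-wide kinase profiling panel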
[29] = target: Mitogen-activated protein kinase kinase kinase kinase 5 (Homo sapiens, UniProt Q9Y4K4); assay type: functional;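 further: measured as one member of a kinome-spanning kinase panel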
[30] = target: Serine/threonine-protein kinase BRSK1 (Homo sapiens, UniProt Q8TDC3); assay type: functional;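 further: measured within a kinome-wide kinase panel, with the target listed as KIAA1811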
Chain of Serine/threonine-protein kinase BRSK1 (Q8TDC3 whole entry): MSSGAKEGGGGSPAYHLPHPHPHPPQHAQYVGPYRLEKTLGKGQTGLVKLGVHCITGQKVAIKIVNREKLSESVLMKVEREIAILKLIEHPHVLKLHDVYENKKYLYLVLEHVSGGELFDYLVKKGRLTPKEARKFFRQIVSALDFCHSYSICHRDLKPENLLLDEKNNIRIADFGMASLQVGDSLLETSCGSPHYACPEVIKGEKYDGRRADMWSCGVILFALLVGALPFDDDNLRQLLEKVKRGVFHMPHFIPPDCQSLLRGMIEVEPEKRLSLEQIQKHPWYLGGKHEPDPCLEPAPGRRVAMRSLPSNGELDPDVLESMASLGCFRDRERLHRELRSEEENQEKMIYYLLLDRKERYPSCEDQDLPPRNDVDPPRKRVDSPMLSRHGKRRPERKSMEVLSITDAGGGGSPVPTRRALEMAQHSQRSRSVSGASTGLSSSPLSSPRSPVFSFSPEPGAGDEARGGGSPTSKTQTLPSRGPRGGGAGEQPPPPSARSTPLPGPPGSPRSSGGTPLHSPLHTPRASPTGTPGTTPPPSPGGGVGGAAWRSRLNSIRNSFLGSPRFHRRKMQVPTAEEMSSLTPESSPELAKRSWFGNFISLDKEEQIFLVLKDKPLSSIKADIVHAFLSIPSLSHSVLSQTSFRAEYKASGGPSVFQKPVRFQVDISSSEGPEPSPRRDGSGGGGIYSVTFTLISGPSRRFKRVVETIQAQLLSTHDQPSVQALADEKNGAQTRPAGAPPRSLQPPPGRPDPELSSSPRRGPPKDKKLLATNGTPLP

[31] = target: Proto-oncogene tyrosine-protein kinase receptor Ret (Homo sapiens, UniProt P07949); assay type: functional;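 further: measured within a kinome-wide profiling panel, RET as the panel member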
[32] = target: Tyrosine-protein kinase receptor TYRO3 (Homo sapiens, UniProt Q06418); assay type: functional;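 further: TYRO3 value obtained as one member of a kinome-wide profiling panel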
[33] = target: Tyrosine-protein kinase Lck (Homo sapiens, UniProt P06239); assay type: functional;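 further: lck was assayed as one member of a kinase panel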
[34] = target: Tyrosine-protein kinase ITK/TSK (Homo sapiens, UniProt Q08881); assay type: functional;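 further: affinity for ITK measured as one member of a broad kinase panel profiling binding across the kinome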
[35] = target: Interleukin-1 receptor-associated kinase 1 (Homo sapiens, UniProt P51617); assay type: functional;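 further: IRAK1 tested as one member of a kinome panel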
[36] = target: Serine/threonine-protein kinase PLK1 (Homo sapiens, UniProt P53350); assay type: functional;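 further: PLK1 measured as one member of a kinome-wide profiling panel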
[37] = target: Mitogen-activated protein kinase 12 (Homo sapiens, UniProt P53778); assay type: functional;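 further: measured as one member of a kinome-wide kinase profiling panel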
[38] = target: Serine/threonine-protein kinase Chk2 (Homo sapiens, UniProt O96017); assay type: functional;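 further: CHEK2 entry within a kinome-wide screening panel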
[39] = target: Serine/threonine-protein kinase pim-1 (Homo sapiens, UniProt P11309); assay type: functional
Chain of Serine/threonine-protein kinase pim-1 (P11309 whole entry): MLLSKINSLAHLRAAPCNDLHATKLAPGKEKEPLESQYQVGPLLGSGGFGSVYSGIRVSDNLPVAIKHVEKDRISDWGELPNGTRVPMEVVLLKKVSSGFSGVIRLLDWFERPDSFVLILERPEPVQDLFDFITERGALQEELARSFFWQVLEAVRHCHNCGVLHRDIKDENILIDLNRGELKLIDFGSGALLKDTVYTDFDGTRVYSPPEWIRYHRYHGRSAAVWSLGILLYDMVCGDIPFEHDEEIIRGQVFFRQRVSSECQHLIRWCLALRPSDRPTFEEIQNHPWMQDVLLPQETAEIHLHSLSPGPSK

[40] = target: Serine/threonine-protein kinase DCLK1 (Homo sapiens, UniProt O15075); assay type: functional;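 further: affinity for DCLK1 (listed as DCAMKL1) measured as one member of a kinome-wide kinase profiling panel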
[41] = target: Tyrosine-protein kinase SYK (Homo sapiens, UniProt P43405); assay type: functional
[42] = target: Receptor tyrosine-protein kinase erbB-2 (Homo sapiens, UniProt P04626); assay: Navigating the Kinome. Panel member name: ERBB2; assay type: functional

SMILES: COc1ccc(-c2nnc(NC(=O)c3ccc(F)cc3)o2)cc1
IC50 (H9c2): > 79000 nM (inactive)
EC50 [1]: 305 nM (active)
EC50 (BJ [2]): 61700 nM (active)
IC50 [3]: > 118000 nM (inactive)
EC50 (BJ [4]): > 150000 nM (not active)
EC50 [5]: 38100 nM (active)

Ki [6]: > 794 nM (inactive)
Ki [7]: > 7940 nM (inactive)
Ki [8]: 316 nM (active)
Ki [9]: > 6310 nM (inactive)
Ki [10]: 50.1 nM (active)
Ki [11]: > 7940 nM (inactive)
Ki [12]: 1580 nM (active)
Ki [13]: 31.6 nM (active)
Ki [14]: > 2000 nM (inactive)
Ki [16]: 2000 nM (active)
Ki [17]: > 1260 nM (inactive)
Ki [18]: > 5010 nM (inactive)
Ki [19]: > 6310 nM (inactive)
Ki [20]: 1580 nM (active)
Ki [21]: 5.01 nM (active)
Ki (Aurora kinase A): 501 nM (active)
Ki [22]: 3.16 nM (active)
Ki [23]: > 3980 nM (inactive)
Ki [24]: 501 nM (active)
Ki [25]: > 1580 nM (inactive)
Ki (Insulin receptor): > 5010 nM (inactive)
Ki [26]: > 7940 nM (inactive)
Ki [27]: > 3160 nM (inactive)
Ki [28]: > 3160 nM (inactive)
Ki [29]: 1580 nM (active)
Ki [30]: > 10000 nM (inactive)
Ki [31]: > 1260 nM (inactive)
Ki [32]: > 2000 nM (inactive)
Ki [33]: 2510 nM (active)
Ki [34]: > 1580 nM (inactive)
Ki [35]: > 7940 nM (inactive)
Ki [36]: > 7940 nM (inactive)
Ki [37]: > 6310 nM (inactive)
Ki [38]: > 1580 nM (inactive)
Ki [39]: 316 nM (active)
Ki [40]: > 10000 nM (inactive)
Ki [41]: > 1580 nM (inactive)
Ki [42]: > 1580 nM (inactive)
SMILES: CCn1c(-c2nonc2N)nc2cnc(Oc3cccc(NC(=O)c4ccc(OCCN5CCOCC5)cc4)c3)cc21 [GSK-269962A]
Ki [15]: 501 nM (active)
